Experimental data: patent US20230390279A1, “COMPOSITION AND METHOD FOR TREATING CANCER” (NOVMETAPHARMA CO., LTD., priority 2022, published 2023)

What was measured:
Assay type in all cases: cell-based
[1] = tested on: A549 lung cancer cell line; assay: MTT cell viability assay, TKI combination; settings: Homo sapiens, bosutinib 12.5 μM, 24 hours, read-out: growth inhibition
Description: (§1) To evaluate anticancer effects of ERRγ compound, alone and in combination with TKIs, various cancer cells including A549, Panc-1, Sk-Hep-1, Huh-7, and SK-Hep-1 cells were cultured in DMEM containing 10% FBS and 1% antibiotics.
(§2) To initiate the assay, cells were seeded in 96-well plates at a density of 1×10^4 cells per well and incubated overnight in a 37° C. […] To serve as a control, an equal volume of DMSO was added. After 24 hours of incubation, the media was replaced with media containing 0.5 mg/ml of MTT and the plates were incubated for 1 hour. Then, the medium was removed and formazan crystals were dissolved in 100 μl of DMSO added to each well. A microplate reader was used to measure the absorbance at 570 nm, and cell viability was normalized to control. Statistical significance was calculated using Student's t-test, with significance levels set at **p<0.01, ***p<0.001, and ****p<0.0001.

[2] = tested on: Panc1 pancreatic cancer cells; assay: MTT cell viability assay, TKI combination; settings: Homo sapiens, PANC-1, ceritinib 2.5 μM, 24 hours, read-out: growth inhibition
Description: as §1, §2

Huh-7 liver cancer cells = assay: MTT cell viability assay, TKI combination; settings: Homo sapiens, lenvatinib 1.3 μM, 24 hours, read-out: growth inhibition
Description: as §1, §2

[3] = tested on: SK-Hep-1 liver cancer cells; assay: MTT cell viability assay, TKI combination; settings: Homo sapiens, SK-HEP1, lenvatinib 15 μM, 24 hours, read-out: growth inhibition
Description: as §1, §2

[4] = tested on: SKOV-3 ovarian cancer cells; assay: MTT cell viability assay, TKI combination; settings: Homo sapiens, SK-OV-3, ruxolitinib 30 μM, 24 hours, read-out: growth inhibition
[5] = tested on: sorafenib-resistant liver cancer cell line Huh7-SR; assay: Cell death by FACS (annexin/PI) and cleaved caspase-3; settings: Huh7-SR cells; FIGS. 1A to 1C
Description: (§3) To evaluate the cancer cell death by FACS, first, a cancer cell line was incubated in FITC-bound annexin and propidium iodide (PI) for 15 minutes, and annexin and PI binding were then measured by flow cytometry to acquire data using a BD Accuri C6 flow cytometer (BD Biosciences) and analyzed with the ACCURI™ C6 analysis program (BD Biosciences)/FlowJo software (FlowJo, LLC.). Cancer cell line death was evaluated using a cleaved caspase-3 antibody (Cell Signaling Technology).

[6] = tested on: sorafenib-resistant liver cancer cell line SK-Hep-R; assay: as above; settings: SK-Hep-R cells; FIGS. 1A to 1C
Description: as §3

[7] = tested on: sorafenib-resistant liver cancer cell line Huh7-R; assay: Cell proliferation, trypan blue cell count with hemocytometer; settings: sorafenib alone, FIG. 4A
[8] = tested on: sorafenib-resistant liver cancer cell line SK-Hep-R; assay: as above; settings: sorafenib alone, FIG. 4B

With COc1cc(Nc2c(C#N)cnc3cc(OCCCN4CCN(C)CC4)c(OC)cc23)c(Cl)cc1Cl [bosutinib] the inhibition at 12.5 µM [1] was 16.3%.
In the case of Cc1cc(Nc2ncc(Cl)c(Nc3ccccc3S(=O)(=O)C(C)C)n2)c(OC(C)C)cc1C1CCNCC1 [ceritinib], the inhibition at 2.5 µM [2] is reported as 17%.
COc1cc2nccc(Oc3ccc(NC(=O)NC4CC4)c(Cl)c3)c2cc1C(N)=O [lenvatinib] gave an inhibition at 1.3 µM (Huh-7 liver cancer cells) of 16.7% and an inhibition at 15 µM [3] of 16.7%.
With N#CC[C@H](C1CCCC1)n1cc(-c2ncnc3[nH]ccc23)cn1 [ruxolitinib] the inhibition at 30 µM [4] was 8.8%.
For CNC(=O)c1cc(Oc2ccc(NC(=O)Nc3ccc(Cl)c(C(F)(F)F)c3)cc2)ccn1 [sorafenib], the “cell death by sorafenib” value [5] was “did not increase”, the “cell death by sorafenib” value [6] was “did not increase” and the cell proliferation [7] was “not affected”. The cell proliferation [8] was “not affected”.
